Assay [1] addresses T1, GO (Mus musculus, UniProt Q9WU19).
T1 construct: endogenous in cells; host or cells: primary hepatocytes from male C56BL/6 (so in the source) mouse liver
T1 sequence (Q9WU19 1-370): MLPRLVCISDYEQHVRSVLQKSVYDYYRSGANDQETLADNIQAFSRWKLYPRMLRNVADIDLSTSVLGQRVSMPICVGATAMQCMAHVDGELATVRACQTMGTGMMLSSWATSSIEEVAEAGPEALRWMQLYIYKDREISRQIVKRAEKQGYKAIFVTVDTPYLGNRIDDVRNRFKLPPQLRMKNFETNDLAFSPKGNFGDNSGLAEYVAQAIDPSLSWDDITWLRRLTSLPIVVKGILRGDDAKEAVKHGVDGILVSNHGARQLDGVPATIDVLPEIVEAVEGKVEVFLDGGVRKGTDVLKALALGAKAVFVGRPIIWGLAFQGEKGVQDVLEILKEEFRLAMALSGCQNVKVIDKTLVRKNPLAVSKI
Put plainly: GO Cellular Assay: Primary Hepatocyte Assay (Assay 2). Type of assay: cell-based. The conditions noted are these: primary mouse hepatocytes, 5 mM glycolate, oxalate at 72 hours; read-out: Range of IC50 values calculated from the cellular assays (Assay 2). On the procedure: Assay 2: GO Cellular Assay: Primary Hepatocyte Assay
Primary hepatocytes were used for a GO cellular assay as previously described (Martin-Higueras et al., Mol Ther. 24(4): 719-725 (2016)). Hepatocytes were isolated using an in situ collagenase perfusion method from male C56BL/6 mice liver. The freshly isolated hepatocytes were cultured in six well plates with Williams E medium supplemented with 5% fetal bovine serum, 2 mM 1-glutamine, 100 U/ml penicillin, 100 μg/ml streptomycin, 2.2 mUI/ml insulin and 0.3 μg/ml hydrocortisone. After 5 hours, the medium was changed to Williams E complete medium (Biochrom, Cambridge, UK) without serum and cells were treated with various concentrations of inhibitors in the presence of 5 mM glycolate. Culture medium was harvested at 72 hours after treatment, and the oxalate was quantified by using an oxalate oxidase assay kit (Trinity Biotech, Co Wicklow, Ireland) following manufacturer's instructions. The oxalate level was also confirmed by LC-MS method. The IC50 value for each measured compound was generated from sigmoidal dose-response (variable slope) curves with GraphPad Prism software (GraphPad Software, Inc., San Diego, Calif.) using the percent inhibition of GO activity relative to DMSO control.

The target of assay [2] is T2, GO (Homo sapiens, UniProt Q9UJM8).
T2 sequence (Q9UJM8 1-370): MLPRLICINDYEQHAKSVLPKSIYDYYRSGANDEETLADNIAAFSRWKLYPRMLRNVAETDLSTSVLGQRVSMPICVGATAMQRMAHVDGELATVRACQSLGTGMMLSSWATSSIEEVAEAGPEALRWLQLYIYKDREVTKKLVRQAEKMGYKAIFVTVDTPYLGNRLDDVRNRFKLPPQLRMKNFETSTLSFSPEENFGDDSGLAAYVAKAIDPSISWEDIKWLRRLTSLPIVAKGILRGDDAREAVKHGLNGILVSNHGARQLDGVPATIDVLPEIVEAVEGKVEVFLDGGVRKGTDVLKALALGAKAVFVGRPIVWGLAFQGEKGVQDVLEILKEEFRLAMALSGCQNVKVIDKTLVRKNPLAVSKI
Briefly: GO Cellular Assay: CHO-Agt Cells Assay (Assay 3). Type of assay: cell-based, Chinese hamster. Also on record: host or cells: CHO cells (A.T.C.C. CCl-61) and engineered CHO-Agt cells (from Fargue/Danpure). The conditions noted are these: 100 uM glycolic acid, glyoxylate by LC-MS at 2 hours, read-out: Range of IC50 values calculated from the cellular assays (Assay 3). On the procedure:
Assay 3: GO Cellular Assay: CHO-Agt Cells Assay
CHO cells (A.T.C.C. number CCl-61) and engineered CHO-Agt cells (provided by Dr. Sonia Fargue and Dr. Christopher J. Danpure, Biochem. J. (2006) 394, 409-416) were used as a screening cellular assay for primary compounds. The cells were seeded in 20,000 cell/well in 96 well plate and cultured at 37-C under O2/CO2 (19:1) in Ham's F12 medium (Invitrogen) supplemented with fetal calf serum (10%, v/v), L-glutamine (2 mM), penicillin (100 units/ml) and streptomycin (100 pug/ml). After overnight culture, the cells were treated with various concentrations of inhibitors in the presence of 100 uM glycolic acid in HEPES buffer, pH7.0 (Sigma-Aldrich, Cat #124737). Culture medium was harvested at 2 hours after treatment for glyoxylate analysis and cell viability was measured by Cell Titer-Glo (Fisher Scientific, Cat #. PR-G7570).
The glyoxylate was quantified using LC-MS method. An aliquot of 120 μL medium was removed from each well and protein precipitated by adding 240 μL IS (100 ng/ml 13C2-glyoxylic acid, Sigma-Aldrich, Cat #G755002). The mixture was vortex-mixed well and centrifuged at 3900 rpm for 15 min, 4° C. 100 μL supernatant was then mixed with 10 μL formic acid and 100 μL 400 μM DNPH (2,4-dinitrophenylhydrazine) (Shanghai Runjie Huaxue Shiji Ltd., Cat #A0000436) and the mixture was shaken for 30 minutes. A 3 μL mixture of reaction mixture was injected for LC-MS/MS analysis. (Behnam J T, Williams E L, Brink S, Rumsby G, Danpure C J., “Reconstruction of human hepatocyte glyoxylate metabolic pathways in stably transformed Chinese-hamster ovary cells”, Biochem J. 2006 Mar. 1; 394 (Pt 2):409-16.)

In general, IC50 refers to the concentration that inhibits the measured activity by half. As for `CC(C)C(=O)OCCOC(=O)c1[nH]nnc1O[C@H]1CC[C@H](c2ccc(OC(F)(F)F)cc2)CC1` [Compound 371, 2-(isobutyryloxy)ethyl 4-(((trans)-4-(4-(trifluoromethoxy)phenyl)cyclohexyl)oxy)-1H-1,2,3-triazole-5-carboxylate], the IC50 in assay [1] was < 1000 nM.
`OCc1nn[nH]c1Oc1ccc(-c2ccc(N3CCCCC3)cc2)cc1` [Compound 496, (4-((4′-(piperidin-1-yl)-[1,1′-biphenyl]-4-yl)oxy)-1H-1,2,3-triazol-5-yl)methanol]: the IC50 in assay [1] and in assay [2] was < 1000 nM throughout.
On to `OCc1[nH]nnc1Oc1ccc(-c2ccc(Cl)c(Cl)c2)cc1` [Compound 493-1, (4-((3′,4′-dichloro-[1,1′-biphenyl]-4-yl)oxy)-1H-1,2,3-triazol-5-yl)methanol], for which the values for the half-inhibitory concentration (IC50) in assay [1] and in assay [2] were < 1000 nM and 1000 to 5000 nM, respectively.
As for `O=Cc1[nH]nnc1Oc1ccc(-c2ccc(OC(F)(F)F)cc2)cc1` [Compound 491, 4-((4′-(trifluoromethoxy)-[1,1′-biphenyl]-4-yl)oxy)-1H-1,2,3-triazole-5-carbaldehyde], the IC50 in assay [1] and in assay [2] was < 1000 nM each time.
In the case of `O=Cc1[nH]nnc1O[C@H]1CC[C@H](c2ccc(OC(F)(F)F)cc2)CC1` [Compound 490, 4-(((trans)-4-(4-(trifluoromethoxy)phenyl)cyclohexyl)oxy)-1H-1,2,3-triazole-5-carbaldehyde], the IC50 in assay [1] and in assay [2] was < 1000 nM each time.
For `OCc1[nH]nnc1Oc1ccc(-c2ccc(OC(F)(F)F)cc2)cc1` [Compound 487, (4-((4′-(trifluoromethoxy)-[1,1′-biphenyl]-4-yl)oxy)-1H-1,2,3-triazol-5-yl)methanol], the half-maximal inhibitory concentration (IC50) in assay [1] and in assay [2] was 1000 to 5000 nM throughout.
As for `OCc1[nH]nnc1Sc1ccc(-c2ccc(N3CCCCC3)cc2)cc1` [Compound 492, (4-((4′-(piperidin-1-yl)-[1,1′-biphenyl]-4-yl)thio)-1H-1,2,3-triazol-5-yl)methanol], the figures for the concentration for half-maximal inhibition (IC50) in assay [1] and in assay [2] were < 1000 nM and > 10000 nM, respectively.
Taken in the same sequence, the figures for `OCc1[nH]nnc1O[C@H]1CC[C@H](c2ccc(OC(F)(F)F)cc2)CC1` [Compound 488, (4-(((trans)-4-(4-(trifluoromethoxy)phenyl)cyclohexyl)oxy)-1H-1,2,3-triazol-5-yl)methanol] were < 1000 nM and 1000 to 5000 nM.
With `CCOC(=O)c1[nH]nnc1Sc1nc(-c2ccc(Cl)c(Cl)c2)cs1` [Compound 1, ethyl 4-((4-(3,4-dichlorophenyl)thiazol-2-yl)thio)-1H-1,2,3-triazole-5-carboxylate], the half-maximal inhibitory concentration (IC50) in assay [2] is > 10000 nM.
For `CCN(CC)C(=O)OCOC(=O)c1[nH]nnc1O[C@H]1CC[C@H](c2ccc(OC(F)(F)F)cc2)CC1` [Compound 370, ((diethylcarbamoyl)oxy)methyl 4-(((trans)-4-(4-(trifluoromethoxy)phenyl)cyclohexyl)oxy)-1H-1,2,3-triazole-5-carboxylate], in assay [1], the IC50 is < 1000 nM.
Regarding `OCc1[nH]nnc1S[C@H]1CC[C@@H](c2ccc(OC(F)(F)F)cc2)CC1` [Compound 489, (4-(((cis)-4-(4-(trifluoromethoxy)phenyl)cyclohexyl)thio)-1H-1,2,3-triazol-5-yl)methanol], the half-inhibitory concentration (IC50) in assay [2] is 1000 to 5000 nM.

Values taken from patent publication US20230088214A1, “GLYCOLATE OXIDASE INHIBITORS FOR THE TREATMENT OF DISEASE” (BIOMARIN PHARMACEUTICAL INC., priority 2019, published 2023).
